Patent publication US4612185A, “Methods and compositions for enhancing magnetic resonance imaging” (Mallinckrodt, Inc., priority 1984, dated 1986)

Key:
[1] = test system: liver, heart, kidney, skeletal muscle, spleen, blood and urine samples; assay: Fluorine analysis of rabbit tissue, blood and urine samples by MR spectroscopy; format: in vivo; conditions: 4 mmol F/kg intravenous, conclusion of experiment
Excerpt: (§1) An anesthetized rabbit was placed in a 12 inch bore, 1.9 Tesla MRI magnet. An RF coil ([…], I.D., 4 cm, O.D.) was placed on the surface of the liver or a kidney which were excised surgically. Fluorine spectra were obtained following 4 mmol F/kg intravenous doses of a solution of sodium [2-(trifluoromethyl)benzamido]acetate (20%, w/v, 2.2 M F, of the compound).
At the conclusion of the experiment, the rabbit was killed and liver, heart, kidney, skeletal muscle, spleen, blood and urine samples were analyzed for fluorine by MR spectroscopy.

[2] = test system: liver or kidney; assay: In vivo fluorine (19F) MR spectra of liver and kidney in anesthetized rabbit; conditions: 4 mmol F/kg intravenous, 1.9 Tesla
Excerpt: as §1

[3] = test system: mice; assay: Acute intravenous toxicity in mice, 7-day observation, LD50 by Litchfield and Wilcoxon; format: in vivo, mouse (Swiss ICR CD-1); conditions: for MORTALITIES/NUMBER TREATED / AVERAGE SURVIVOR WEEKLY BODY WEIGHT CHANGE: single intravenous; for MORTALITIES/NUMBER TREATED: 7 days; for AVERAGE SURVIVOR WEEKLY BODY WEIGHT CHANGE: survivors
Procedure: Sodium [2-(trifluoromethyl) benzamido] acetate was prepared as a 20% w/v solution in sterile water for injection and the pH was adjusted to 7.0 using 0.1 N HCl.
A total of 14 mice (7 male, 24.6-30.0 g; 7 females, 18.6-26.0 g; Swiss ICR CD-1, Charles River) were used. Animals were housed according to standard operating procedures and marked for identification with picric acid.
Groups of 2-3 mice received single intravenous injections of sodium [2-(trifluoromethyl)benzamido]acetate according to the followinq schedule:
Measured single doses were injected into the lateral tail vein at a rate of 1 ml/min. The animals were observed immediately after dosing and during the 7-day observation period for pharmacotoxic reactions. Recording of terminal body weights and general necrospy of the thoracic and abdominal organs was performed after 7 days. An LD50 value was calculated using the method of Litchfield and Wilcoxon (J. Pharmacol. Exp. Ther. 96:99,1949).

Compound: O=C([O-])CNC(=O)c1ccccc1C(F)(F)F.[Na+] [sodium [2-(trifluoromethyl)benzamido]acetate]
- fluorine concentrations in kidney, urine and blood [1]: highest concentrations of fluorine
- fluorine in other tissue specimens ([1]; specimens other than kidney, urine, blood): minimal fluorine detected
- fluorine spectra in liver and kidney ([2]; both liver and kidney): only a single peak which was the same as the spectrum from a solution of sodium [2-(trifluoromethyl)benzamido]acetate
- fluorine signal intensity in kidney ([2]; kidney): peaked very rapidly in the kidney and remained elevated for several minutes
- fluorine signal intensity in liver ([2]; liver versus kidney): less than that for the kidney and took a longer time to peak
- MORTALITIES/NUMBER TREATED ([3]; 1000 mg/kg): 0/2
- AVERAGE SURVIVOR WEEKLY BODY WEIGHT CHANGE ([3]; 1000 mg/kg): 0.1 g
- MORTALITIES/NUMBER TREATED ([3]; 2000 mg/kg): 0/2
- AVERAGE SURVIVOR WEEKLY BODY WEIGHT CHANGE ([3]; 2000 mg/kg): 2.2 g
- MORTALITIES/NUMBER TREATED ([3]; 4000 mg/kg): 0/2
- AVERAGE SURVIVOR WEEKLY BODY WEIGHT CHANGE ([3]; 4000 mg/kg): 1.8 g
- MORTALITIES/NUMBER TREATED ([3]; 6000 mg/kg): 1/3
- AVERAGE SURVIVOR WEEKLY BODY WEIGHT CHANGE ([3]; 6000 mg/kg): 1.0 g
- MORTALITIES/NUMBER TREATED ([3]; 7000 mg/kg): 2/3
- AVERAGE SURVIVOR WEEKLY BODY WEIGHT CHANGE ([3]; 7000 mg/kg): 2.7 g
- MORTALITIES/NUMBER TREATED ([3]; 8000 mg/kg): 2/2
- reactions preceding death ([3]; intravenous, all deaths): mild convulsions
- time of deaths after treatment ([3]; intravenous, all deaths): ≤ 10 min
- time after treatment within which all survivors appeared normal ([3]; intravenous, all survivors): ≤ 5 h
- toxic reactions (hyperactivity) ([3]; intravenous, doses=2000 mg/kg (so in the source)): mild hyperactivity
- toxic reactions (hypoactivity) ([3]; intravenous, doses=4000 mg/kg (so in the source)): dose-related hypoactivity
- body weight of one survivor, week after treatment ([3]; intravenous, one survivor dosed with 1000 mg): body weight loss
- body weight of all other survivors ([3]; intravenous, one week): weight gains
- estimated mouse intravenous LD50 ([3]; mouse, intravenous, compound dose): 6500 mg/kg
- intravenous toxicity profile ([3]; summary statement of toxicity studies): extremely good intravenous toxicity profile
- necropsy findings ([3]; thoracic and abdominal organs, following one week observation): No abnormalities were observed
